From ChEMBL document CHEMBL1667776, “Pharmacophore-based design, synthesis, and biological evaluation of novel chloro-pyridazine piperazines as human rhinovirus (HRV-3) inhibitors” (Bioorg Med Chem Lett, 2011)
Values after ≈ are worked out from the molar mass of the structure shown.

Tested on: rhinovirus B14
Experiment: Antiviral activity against HRV-14
Assay type: functional, organism-based
Settings: Rhinovirus B

EC50 [µg/mL]	Structure (SMILES)
0.03 (≈ 0.0787 µM)	Cc1cc(CCCOc2c(C)cc(-c3noc(C(F)(F)F)n3)cc2C)on1 [PLECONARIL]
0.0032 (≈ 0.00866 µM)	CCOC(=O)c1ccc(OCCC2CCN(c3ccc(C)nn3)CC2)cc1 [PIRODAVIR]
0.032 (≈ 0.0837 µM)	CCOc1nc2cc(OCCC3CCN(c4ccc(C)nn4)CC3)ccc2o1
